# Measured values taken from patent publication US11459323B2, “Monocyclic β-lactam compound for treating bacterial infection” (MEDSHINE DISCOVERY INC., priority 2018, dated 2022).
# How the values were obtained:
# Test in all cases: MIC on clinically isolated bacteria
# Format in all cases: cell-based
# [1] = test system: Acinetobacter baumannii C401; conditions: Acinetobacter baumannii C401; read-out: Minimum Inhibitory Concentration (MIC)
# Description: (§1) Twenty-five strains of clinically isolated Acinetobacter baumannii and twenty-seven strains of Pseudomonas aeruginosa were respectively selected and used to determine the minimum inhibitory concentration (MIC) of the compounds by micro-liquid dilution method according to the Institute of Clinical and Laboratory Standard (CLSI) requirements.
# [2] = test system: Acinetobacter baumannii C312; conditions: Acinetobacter baumannii C312; read-out: Minimum Inhibitory Concentration (MIC)
# Description: as §1
# [3] = test system: Pseudomonas aeruginosa C755; conditions: read-out: MIC
# Description: as §1
# [4] = test system: Acinetobacter baumannii C390; conditions: Acinetobacter baumannii C390; read-out: Minimum Inhibitory Concentration (MIC)
# Description: as §1
# [5] = test system: Acinetobacter baumannii C333; conditions: Acinetobacter baumannii C333; read-out: Minimum Inhibitory Concentration (MIC)
# Description: as §1
# [6] = test system: Pseudomonas aeruginosa W47; conditions: read-out: MIC
# Description: as §1
# [7] = test system: Pseudomonas aeruginosa C761; conditions: read-out: MIC
# Description: as §1
# [8] = test system: Acinetobacter baumannii C408; conditions: Acinetobacter baumannii C408; read-out: Minimum Inhibitory Concentration (MIC)
# Description: as §1
# [9] = test system: Pseudomonas aeruginosa M4; conditions: read-out: MIC
# Description: as §1
# [10] = test system: Acinetobacter baumannii C395; conditions: Acinetobacter baumannii C395; read-out: Minimum Inhibitory Concentration (MIC)
# Description: as §1
# [11] = test system: Acinetobacter baumannii C315; conditions: Acinetobacter baumannii C315; read-out: Minimum Inhibitory Concentration (MIC)
# Description: as §1
# [12] = test system: Pseudomonas aeruginosa W28; conditions: read-out: MIC
# Description: as §1
# [13] = test system: Pseudomonas aeruginosa W19; conditions: read-out: MIC
# Description: as §1
# [14] = test system: Pseudomonas aeruginosa C754; conditions: read-out: MIC
# Description: as §1
# [15] = test system: Pseudomonas aeruginosa W20; conditions: read-out: MIC
# Description: as §1
# [16] = test system: Acinetobacter baumannii C313; conditions: Acinetobacter baumannii C313; read-out: Minimum Inhibitory Concentration (MIC)
# Description: as §1
# [17] = test system: Pseudomonas aeruginosa W24; conditions: read-out: MIC
# Description: as §1
# [18] = test system: Acinetobacter baumannii C328; conditions: Acinetobacter baumannii C328; read-out: Minimum Inhibitory Concentration (MIC)
# Description: as §1
# [19] = test system: Pseudomonas aeruginosa W4; conditions: read-out: MIC
# Description: as §1
# [20] = test system: Acinetobacter baumannii C427; conditions: Acinetobacter baumannii C427; read-out: Minimum Inhibitory Concentration (MIC)
# Description: as §1
# [21] = test system: Acinetobacter baumannii C270; conditions: Acinetobacter baumannii C270; read-out: Minimum Inhibitory Concentration (MIC)
# Description: as §1
# [22] = test system: Pseudomonas aeruginosa W13; conditions: read-out: MIC
# Description: as §1
# [23] = test system: Pseudomonas aeruginosa W27; conditions: read-out: MIC
# Description: as §1
# [24] = test system: Acinetobacter baumannii C357; conditions: Acinetobacter baumannii C357; read-out: Minimum Inhibitory Concentration (MIC)
# Description: as §1
# [25] = test system: Pseudomonas aeruginosa W42; conditions: read-out: MIC
# Description: as §1
# [26] = test system: Pseudomonas aeruginosa C745; conditions: read-out: MIC
# Description: as §1
# [27] = test system: Acinetobacter baumannii C361; conditions: Acinetobacter baumannii C361; read-out: Minimum Inhibitory Concentration (MIC)
# Description: as §1
# [28] = test system: Acinetobacter baumannii C402; conditions: Acinetobacter baumannii C402; read-out: Minimum Inhibitory Concentration (MIC)
# Description: as §1
# [29] = test system: Acinetobacter baumannii C251; conditions: Acinetobacter baumannii C251; read-out: Minimum Inhibitory Concentration (MIC)
# Description: as §1
# [30] = test system: Pseudomonas aeruginosa W46; conditions: read-out: MIC
# Description: as §1
# [31] = test system: Pseudomonas aeruginosa W29; conditions: read-out: MIC
# Description: as §1
# [32] = test system: Pseudomonas aeruginosa W9; conditions: read-out: MIC
# Description: as §1
# [33] = test system: Pseudomonas aeruginosa W21; conditions: read-out: MIC
# Description: as §1
# [34] = test system: Acinetobacter baumannii C394; conditions: Acinetobacter baumannii C394; read-out: Minimum Inhibitory Concentration (MIC)
# Description: as §1
# [35] = test system: Pseudomonas aeruginosa C763; conditions: read-out: MIC
# Description: as §1
# [36] = test system: Acinetobacter baumannii C403; conditions: Acinetobacter baumannii C403; read-out: Minimum Inhibitory Concentration (MIC)
# Description: as §1
# Aeruginosa ATCC27853 = conditions: Pseudomonas aeruginosa; Aeruginosa ATCC27853; read-out: MIC
# Description: as §1
# [37] = test system: Pseudomonas aeruginosa W32; conditions: read-out: MIC
# Description: as §1
# [38] = test system: Acinetobacter baumannii C332; conditions: Acinetobacter baumannii C332; read-out: Minimum Inhibitory Concentration (MIC)
# Description: as §1
# [39] = test system: Acinetobacter baumannii C319; conditions: Acinetobacter baumannii C319; read-out: Minimum Inhibitory Concentration (MIC)
# Description: as §1
# [40] = test system: Pseudomonas aeruginosa W1; conditions: read-out: MIC
# Description: as §1
structure (smiles),measurement,setting,value
CC1(C)[C@H](NC(=O)/C(=N\O[C@@H](COc2ccc3c(c2)CN(C(=N)N(CCN)CCN)C3)C(=O)O)c2csc(N)n2)C(=O)N1OS(=O)(=O)O [Compound 45],MIC,[1],8 µg/mL
same,MIC,[2],16 µg/mL
same,MIC,[3],4 µg/mL
same,MIC,[4],16 µg/mL
same,MIC,[5],16 µg/mL
same,MIC,[6],16 µg/mL
same,MIC,[7],8 µg/mL
same,MIC,[8],8 µg/mL
same,MIC,[9],0.25 µg/mL
same,MIC,[10],8 µg/mL
same,MIC,[11],16 µg/mL
same,MIC,[12],> 16 µg/mL
same,MIC,[13],8 µg/mL
same,MIC,[14],4 µg/mL
same,MIC,[15],16 µg/mL
same,MIC,[16],16 µg/mL
same,MIC,[17],16 µg/mL
same,MIC,[18],16 µg/mL
same,MIC,[19],2 µg/mL
same,MIC,[20],16 µg/mL
same,MIC,[21],16 µg/mL
same,MIC,[22],4 µg/mL
same,MIC,[23],16 µg/mL
same,MIC,[24],8 µg/mL
same,MIC,[25],4 µg/mL
same,MIC,[26],> 16 µg/mL
same,MIC,[27],8 µg/mL
same,MIC,[28],8 µg/mL
same,MIC,[29],16 µg/mL
same,MIC,[30],8 µg/mL
same,MIC,[31],16 µg/mL
same,MIC,[32],16 µg/mL
same,MIC,[33],4 µg/mL
same,MIC,[34],16 µg/mL
same,MIC,[35],> 16 µg/mL
same,MIC,[36],16 µg/mL
same,MIC,Aeruginosa ATCC27853,2 µg/mL
same,MIC,[37],16 µg/mL
same,MIC,[38],16 µg/mL
same,MIC,[39],16 µg/mL
same,MIC,[40],16 µg/mL
"C[C@@H](O)[C@H]1C(=O)N2C(C(=O)O)=C(S[C@@H]3CN[C@H](C(=O)N(C)C)C3)[C@H](C)[C@H]12 [Meropenem, reference compound]",MIC,[1],128 µg/mL
same,MIC,[2],64 µg/mL
same,MIC,[3],< 0.25 µg/mL
same,MIC,[4],64 µg/mL
same,MIC,[5],64 µg/mL
same,MIC,[6],4 µg/mL
same,MIC,[7],< 0.25 µg/mL
same,MIC,[8],128 µg/mL
same,MIC,[9],0.5 µg/mL
same,MIC,[11],64 µg/mL
same,MIC,[12],32 µg/mL
same,MIC,[13],1 µg/mL
same,MIC,[14],< 0.25 µg/mL
same,MIC,[15],8 µg/mL
same,MIC,[16],64 µg/mL
same,MIC,[17],16 µg/mL
same,MIC,[19],2 µg/mL
same,MIC,[20],64 µg/mL
same,MIC,[21],64 µg/mL
same,MIC,[22],16 µg/mL
same,MIC,[23],32 µg/mL
same,MIC,[24],64 µg/mL
same,MIC,[25],1 µg/mL
same,MIC,[26],32 µg/mL
same,MIC,[27],64 µg/mL
same,MIC,[28],64 µg/mL
same,MIC,[29],64 µg/mL
same,MIC,[30],2 µg/mL
same,MIC,[31],4 µg/mL
same,MIC,[32],16 µg/mL
same,MIC,[33],16 µg/mL
same,MIC,[34],64 µg/mL
same,MIC,[35],32 µg/mL
same,MIC,[36],64 µg/mL
same,MIC,Aeruginosa ATCC27853,< 0.25 µg/mL
same,MIC,[37],4 µg/mL
same,MIC,[38],64 µg/mL
same,MIC,[39],64 µg/mL
same,MIC,[40],4 µg/mL
